Assay results from ChEMBL document CHEMBL1817546, “The synthesized novel fluorinated compound (LJJ-10) induces death receptor- and mitochondria-dependent apoptotic cell death in the human osteogenic sarcoma U-2 OS cells” (Eur J Med Chem, 2011).

What was measured:
Assay type in all cases: functional, cell-based
[1] = system: U-937; test: Cytotoxicity against human U937 cells after 48 hrs by MTT assay; conditions: U-937, 48 h
[2] = system: MDA-MB-231; test: Cytotoxicity against human MDA-MB-231 cells after 48 hrs by MTT assay; conditions: MDA-MB-231, 48 h
[3] = system: COLO 205; test: Cytotoxicity against human COLO205 cells after 48 hrs by MTT assay; conditions: COLO 205, 48 h
[4] = system: MCF7; test: Cytotoxicity against human MCF7 cells after 48 hrs by MTT assay; conditions: MCF7, 48 h
[5] = system: HL-60; test: Cytotoxicity against human HL60 cells after 48 hrs by MTT assay; conditions: HL-60, 48 h
[6] = Cytotoxicity against human HT29-AK cells after 48 hrs by MTT assay
[7] = system: U2OS; test: Cytotoxicity against human U2OS cells after 48 hrs by MTT assay

| Compound | IC50 [1] | IC50 [2] | IC50 [3] | IC50 [4] | IC50 [5] | IC50 [6] | IC50 [7] |
| --- | --- | --- | --- | --- | --- | --- | --- |
| Nc1ccc(Nc2nc(-c3cccc(F)c3)nc3ccc(F)cc23)cc1 | > 50 µM | > 50 µM | > 50 µM | > 50 µM | > 50 µM | > 50 µM | 44.1 µM |
| Fc1cccc(-c2nc(Nc3cccc(Cl)c3)c3cc(F)ccc3n2)c1 | > 50 µM | > 50 µM | > 50 µM | > 50 µM | > 50 µM | > 50 µM | > 50 µM |
| COc1ccccc1Nc1nc(-c2cccc(F)c2)nc2ccc(F)cc12 | > 50 µM | > 50 µM | > 50 µM | > 50 µM | > 50 µM | > 50 µM | > 50 µM |
| c1ccc(Nc2nc(-c3ccccc3)nc3ccccc23)cc1 | > 50 µM | > 50 µM | > 50 µM | > 50 µM | > 50 µM | > 50 µM | > 50 µM |
| Nc1ccccc1Nc1nc(-c2cccc(F)c2)nc2ccc(F)cc12 | 47.2 µM | > 50 µM | > 50 µM | > 50 µM | 41.3 µM | > 50 µM | 37.9 µM |
| Fc1cccc(-c2nc(Nc3ccccc3)c3cc(F)ccc3n2)c1 | 45.5 µM | 47.8 µM | 49.7 µM | 49.7 µM | 48.3 µM | 48.3 µM | 47.6 µM |
| Cc1ccc(Nc2nc(-c3cccc(F)c3)nc3ccc(F)cc23)cc1 | > 50 µM | > 50 µM | > 50 µM | > 50 µM | > 50 µM | > 50 µM | > 50 µM |
| Fc1cccc(-c2nc(Nc3cccc(Br)c3)c3cc(F)ccc3n2)c1 | > 50 µM | > 50 µM | > 50 µM | > 50 µM | > 50 µM | > 50 µM | > 50 µM |
| Oc1ccccc1Nc1nc(-c2cccc(F)c2)nc2ccc(F)cc12 | 46.2 µM | > 50 µM | > 50 µM | > 50 µM | 44.4 µM | > 50 µM | 41.4 µM |
| Fc1ccc(Nc2nc(-c3cccc(F)c3)nc3ccc(F)cc23)cc1 | > 50 µM | > 50 µM | > 50 µM | > 50 µM | > 50 µM | > 50 µM | > 50 µM |
| Fc1cccc(-c2nc(Nc3ccccc3)c3ccccc3n2)c1 | > 50 µM | > 50 µM | > 50 µM | > 50 µM | > 50 µM | > 50 µM | > 50 µM |
| Fc1cccc(-c2nc(Nc3ccc(Br)cc3)c3cc(F)ccc3n2)c1 | > 50 µM | > 50 µM | > 50 µM | > 50 µM | > 50 µM | > 50 µM | > 50 µM |
| Nc1cccc(Nc2nc(-c3cccc(F)c3)nc3ccc(F)cc23)c1 | > 50 µM | > 50 µM | > 50 µM | > 50 µM | > 50 µM | > 50 µM | 49.6 µM |
| COc1ccc(Nc2nc(-c3cccc(F)c3)nc3ccc(F)cc23)cc1 | 41.1 µM | 47.3 µM | 46.8 µM | 48.4 µM | 38.6 µM | 42.3 µM | 32.3 µM |
| Oc1cccc(Nc2nc(-c3cccc(F)c3)nc3ccc(F)cc23)c1 | > 50 µM | > 50 µM | > 50 µM | > 50 µM | > 50 µM | > 50 µM | 33.3 µM |
| Fc1cccc(-c2nc(Nc3ccccc3Cl)c3cc(F)ccc3n2)c1 | > 50 µM | > 50 µM | > 50 µM | > 50 µM | > 50 µM | > 50 µM | > 50 µM |
| Cc1ccccc1Nc1nc(-c2cccc(F)c2)nc2ccc(F)cc12 | > 50 µM | > 50 µM | > 50 µM | > 50 µM | > 50 µM | > 50 µM | > 50 µM |
